In ChEMBL document CHEMBL1122903, “Synthesis, in vitro [3H]prazosin displacement, and in vivo activity of 3-aryl-4,5,6,7-tetrahydropyrazolo[4,3-c]pyridines, a new class of antihypertensive agents” (J Med Chem, 1985):
Values belong to the molecule of their own block, whether it stands above or below them.

Experiments:
Rattus norvegicus [1] = test: Antihypertensive activity on spontaneously hypertensive rats, when administered orally at a dose 30 mg/kg; type: functional; settings: route oral
[2] = target: T1, Adrenergic receptor alpha-1 (Rattus norvegicus, UniProt P15823+P23944+P43140); test: Ability to displace [3H]prazosin from postsynaptic alpha-1 adrenergic receptor of rat in vitro.; type: protein assay
T1 sequence (P15823 whole entry): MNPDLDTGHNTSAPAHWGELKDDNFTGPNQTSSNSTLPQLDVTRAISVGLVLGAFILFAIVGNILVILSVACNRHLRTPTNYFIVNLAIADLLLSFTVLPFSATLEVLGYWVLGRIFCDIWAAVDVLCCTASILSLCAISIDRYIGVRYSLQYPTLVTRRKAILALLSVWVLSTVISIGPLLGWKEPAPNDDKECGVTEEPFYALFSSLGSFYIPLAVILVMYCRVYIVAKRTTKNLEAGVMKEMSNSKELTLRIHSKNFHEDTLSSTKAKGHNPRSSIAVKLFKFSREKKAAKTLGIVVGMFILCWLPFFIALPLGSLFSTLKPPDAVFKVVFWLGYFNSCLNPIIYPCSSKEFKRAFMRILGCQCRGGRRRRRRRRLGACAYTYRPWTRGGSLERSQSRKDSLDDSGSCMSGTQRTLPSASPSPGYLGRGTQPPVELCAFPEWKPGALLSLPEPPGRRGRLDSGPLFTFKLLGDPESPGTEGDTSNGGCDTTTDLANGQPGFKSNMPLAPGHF
T1 sequence (P23944 whole entry): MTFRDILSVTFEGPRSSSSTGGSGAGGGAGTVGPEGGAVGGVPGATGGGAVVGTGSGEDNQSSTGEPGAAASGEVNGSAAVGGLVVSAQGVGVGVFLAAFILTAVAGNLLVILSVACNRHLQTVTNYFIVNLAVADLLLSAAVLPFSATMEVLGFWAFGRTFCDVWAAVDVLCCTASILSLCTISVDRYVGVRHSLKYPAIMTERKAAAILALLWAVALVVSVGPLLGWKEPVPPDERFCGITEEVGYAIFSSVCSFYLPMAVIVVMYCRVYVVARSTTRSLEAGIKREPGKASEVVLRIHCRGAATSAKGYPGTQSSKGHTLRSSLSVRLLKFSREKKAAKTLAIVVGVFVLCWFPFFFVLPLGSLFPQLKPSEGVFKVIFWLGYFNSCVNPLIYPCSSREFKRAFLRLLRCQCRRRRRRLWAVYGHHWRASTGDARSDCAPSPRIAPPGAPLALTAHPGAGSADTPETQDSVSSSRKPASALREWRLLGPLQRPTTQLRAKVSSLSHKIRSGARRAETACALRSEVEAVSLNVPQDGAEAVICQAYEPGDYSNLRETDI
T1 sequence (P43140 whole entry): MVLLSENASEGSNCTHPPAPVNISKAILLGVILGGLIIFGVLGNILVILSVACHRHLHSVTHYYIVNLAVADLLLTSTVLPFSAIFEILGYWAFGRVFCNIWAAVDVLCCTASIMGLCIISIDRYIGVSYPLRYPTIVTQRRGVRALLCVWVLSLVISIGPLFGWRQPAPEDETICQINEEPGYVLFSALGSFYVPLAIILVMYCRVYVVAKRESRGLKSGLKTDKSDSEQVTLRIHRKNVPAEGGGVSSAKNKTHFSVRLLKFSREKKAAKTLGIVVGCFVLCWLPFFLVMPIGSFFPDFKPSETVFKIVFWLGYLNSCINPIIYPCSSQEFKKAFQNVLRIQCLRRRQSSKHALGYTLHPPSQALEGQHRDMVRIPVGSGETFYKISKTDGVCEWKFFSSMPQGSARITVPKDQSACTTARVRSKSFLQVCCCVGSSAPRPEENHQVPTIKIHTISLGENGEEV

Canis familiaris [3] = test: Systolic blood pressure after 8 hours of oral administration in renal hypertensive dogs at dose 2 mg/kg; type: functional, Canis lupus familiaris
Canis familiaris [4] = test: Systolic blood pressure after 4 hours of oral administration in renal hypertensive dogs at dose 0.25 mg/kg; type: functional, Canis lupus familiaris
Canis familiaris [5] = test: Systolic blood pressure after 8 hours of oral administration in renal hypertensive dogs at dose 1 mg/kg; type: functional, Canis lupus familiaris
Rattus norvegicus [6] = test: Antihypertensive activity on spontaneously hypertensive rats when administered orally at a dose 50 mg/kg.; type: functional; settings: route oral
Canis familiaris [7] = test: Systolic blood pressure after 0 hours of oral administration in renal hypertensive dogs at dose 0.25 mg/kg; type: functional, Canis lupus familiaris
Canis familiaris [8] = test: Systolic blood pressure after 0 hours of oral administration in renal hypertensive dogs at dose 2 mg/kg; type: functional, Canis lupus familiaris
Canis familiaris [9] = test: Peak effect after 8 hours on heart rate after 1 days of oral administration in renal hypertensive dogs at dose 0.5 mg/kg; type: functional, Canis lupus familiaris
Canis familiaris [10] = test: Heart rate after 2 hours of oral administration in renal hypertensive dogs at dose 0.25 mg/kg; type: functional, Canis lupus familiaris
Canis familiaris [11] = test: Systolic blood pressure after 6 hours of oral administration in renal hypertensive dogs at dose 1 mg/kg; type: functional, Canis lupus familiaris
Canis familiaris [12] = test: Heart rate after 6 hours of oral administration in renal hypertensive dogs at dose 2 mg/kg; type: functional, Canis lupus familiaris
Canis familiaris [13] = test: Peak effect after 8 hours on systolic blood pressure after 2 days of oral administration in renal hypertensive dogs at dose 0.5 mg/kg; type: functional, Canis lupus familiaris, Artery
Canis familiaris [14] = test: Heart rate after 8 hours of oral administration in renal hypertensive dogs at dose 2 mg/kg; type: functional, Canis lupus familiaris
Canis familiaris [15] = test: Systolic blood pressure after 6 hours of oral administration in renal hypertensive dogs at dose 0.25 mg/kg; type: functional, Canis lupus familiaris
Canis familiaris [16] = test: Heart rate after 0 hours of oral administration in renal hypertensive dogs at dose 2 mg/kg; type: functional, Canis lupus familiaris
Canis familiaris [17] = test: Systolic blood pressure after 2 hr of oral administration in renal hypertensive dogs at dose 2 mg/kg; type: functional, Canis lupus familiaris
Canis familiaris [18] = test: Peak effect after 8 hours on systolic blood pressure after 7 days of oral administration in renal hypertensive dogs at dose 0.5 mg/kg; type: functional, Canis lupus familiaris, Artery
Canis familiaris [19] = test: Heart rate after 8 hours of oral administration in renal hypertensive dogs at dose 0.25 mg/kg; type: functional, Canis lupus familiaris
Canis familiaris [20] = test: Heart rate after 8 hours of oral administration in renal hypertensive dogs at dose 1 mg/kg; type: functional, Canis lupus familiaris
Canis familiaris [21] = test: Systolic blood pressure after 2 hours of oral administration in renal hypertensive dogs at dose 1 mg/kg; type: functional, Canis lupus familiaris
Canis familiaris [22] = test: Heart rate after 0 hours of oral administration in renal hypertensive dogs at dose 1 mg/kg; type: functional, Canis lupus familiaris
Canis familiaris [23] = test: Peak effect after 8 hours on heart rate after 7 days of oral administration in renal hypertensive dogs at dose 0.5 mg/kg; type: functional, Canis lupus familiaris
Canis familiaris [24] = test: Systolic blood pressure after 8 hours of oral administration in renal hypertensive dogs at dose 0.25 mg/kg; type: functional, Canis lupus familiaris
Canis familiaris [25] = test: Systolic blood pressure after 0 hours of oral administration in renal hypertensive dogs at dose 1 mg/kg; type: functional, Canis lupus familiaris
Canis familiaris [26] = test: Peak effect after 8 hours on heart rate after 3 days of oral administration in renal hypertensive dogs at dose 0.5 mg/kg; type: functional, Canis lupus familiaris
Canis familiaris [27] = test: Systolic blood pressure after 2 hours of oral administration in renal hypertensive dogs at dose 0.25 mg/kg; type: functional, Canis lupus familiaris
Canis familiaris [28] = test: Systolic blood pressure after 4 hours of oral administration in renal hypertensive dogs at dose 2 mg/kg; type: functional, Canis lupus familiaris
Canis familiaris [29] = test: Heart rate after 4 hours of oral administration in renal hypertensive dogs at dose 2 mg/kg; type: functional, Canis lupus familiaris
Canis familiaris [30] = test: Heart rate after 0 hours of oral administration in renal hypertensive dogs at dose 0.25 mg/kg; type: functional, Canis lupus familiaris
Canis familiaris [31] = test: Peak effect after 8 hours systolic blood pressure after 3 days of oral administration in renal hypertensive dogs at dose 0.5 mg/kg; type: functional, Canis lupus familiaris, Artery
Canis familiaris [32] = test: Peak effect after 8 hours on heart rate after 2 day of oral administration in renal hypertensive dogs at dose 0.5 mg/kg; type: functional, Canis lupus familiaris
Canis familiaris [33] = test: Heart rate after 4 hours of oral administration in renal hypertensive dogs at dose 0.25 mg/kg; type: functional, Canis lupus familiaris
Canis familiaris [34] = test: Systolic blood pressure after 6 hours of oral administration in renal hypertensive dogs at dose 2 mg/kg; type: functional, Canis lupus familiaris
Canis familiaris [35] = test: Peak effect after 8 hours on systolic blood pressure after 1 day of oral administration in renal hypertensive dogs at dose 0.5 mg/kg; type: functional, Canis lupus familiaris, Artery
Canis familiaris [36] = test: Systolic blood pressure after 4 hours of oral administration in renal hypertensive dogs at dose 1 mg/kg (mean +/- SE for 3 animals /dose); type: functional, Canis lupus familiaris
Canis familiaris [37] = test: Heart rate after 6 hours of oral administration in renal hypertensive dogs at dose 1 mg/kg; type: functional, Canis lupus familiaris
Canis familiaris [38] = test: Heart rate after 2 hours of oral administration in renal hypertensive dogs at dose 1 mg/kg; type: functional, Canis lupus familiaris
Canis familiaris [39] = test: Heart rate after 4 hours of oral administration in renal hypertensive dogs at dose 1 mg/kg; type: functional, Canis lupus familiaris
Canis familiaris [40] = test: Heart rate after 6 hours of oral administration in renal hypertensive dogs at dose 0.25 mg/kg; type: functional, Canis lupus familiaris
Canis familiaris [41] = test: Heart rate after 2 hours of oral administration in renal hypertensive dogs at dose 2 mg/kg; type: functional, Canis lupus familiaris

Ki [2]: 362 nM
Structure (SMILES): CCn1nc(-c2ccc(F)cc2)c2c1CCN(C)C2.CS(=O)(=O)O
Delta p (Rattus norvegicus [1]): -37%

Ki [2]: 14.7 nM
Structure (SMILES): Cl.Fc1ccc(-c2nn(Cc3ccccc3)c3c2CNCC3)cc1
SBP (Canis familiaris [3]): 156 mmHg | SBP (Canis familiaris [4]): 200 mmHg | SBP (Canis familiaris [5]): 165 mmHg | Delta p (Rattus norvegicus [6]): -31% | SBP (Canis familiaris [7]): 200 mmHg | SBP (Canis familiaris [8]): 203 mmHg | Heart rate (Canis familiaris [9]): 100 beats min-1 | Heart rate (Canis familiaris [10]): 112 beats min-1 | SBP (Canis familiaris [11]): 165 mmHg | Heart rate (Canis familiaris [12]): 97 beats min-1 | SBP (Canis familiaris [13]): 155 mmHg | Heart rate (Canis familiaris [14]): 90 beats min-1 | SBP (Canis familiaris [15]): 188 mmHg | Heart rate (Canis familiaris [16]): 110 beats min-1 | SBP (Canis familiaris [17]): 183 mmHg | SBP (Canis familiaris [18]): 155 mmHg | Heart rate (Canis familiaris [19]): 109 beats min-1 | Heart rate (Canis familiaris [20]): 93 beats min-1 | SBP (Canis familiaris [21]): 198 mmHg | Heart rate (Canis familiaris [22]): 107 beats min-1 | Heart rate (Canis familiaris [23]): 95 beats min-1 | SBP (Canis familiaris [24]): 190 mmHg | SBP (Canis familiaris [25]): 200 mmHg | Heart rate (Canis familiaris [26]): 105 beats min-1 | SBP (Canis familiaris [27]): 202 mmHg | SBP (Canis familiaris [28]): 165 mmHg | Heart rate (Canis familiaris [29]): 104 beats min-1 | Heart rate (Canis familiaris [30]): 110 beats min-1 | SBP (Canis familiaris [31]): 160 mmHg | Heart rate (Canis familiaris [32]): 95 beats min-1 | Heart rate (Canis familiaris [33]): 108 beats min-1 | SBP (Canis familiaris [34]): 155 mmHg | SBP (Canis familiaris [35]): 160 mmHg | SBP (Canis familiaris [36]): 172 mmHg | Heart rate (Canis familiaris [37]): 96 beats min-1 | Heart rate (Canis familiaris [38]): 109 beats min-1 | Heart rate (Canis familiaris [39]): 105 beats min-1 | Heart rate (Canis familiaris [40]): 105 beats min-1 | Heart rate (Canis familiaris [41]): 107 beats min-1
